Experimental data from the NIST ThermoML archive (doi:10.1016/j.fluid.2005.11.026).
Values joined by “and” are separate entries in the source; they are usually repeats but may differ in a detail not shown here. Equal entries are not always repeated. Numbers after ± are expanded uncertainties.

Settings: 313.15 K; Liquid; Closed cell (Static) method

| Compound | vapor or sublimation pressure |
| --- | --- |
| C1CCCCC1 [cyclohexane] | 24.62 ± 0.096 kPa |
| Cc1ccccc1 [toluene] | 7.881 ± 0.041 kPa and 7.888 ± 0.041 kPa and 7.889 ± 0.041 kPa |
